Laboratory results: PubChem BioAssay (NCI)
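Cells were grown in 96-well plates and exposed to each compound for 48 hours at five concentrations; endpoints were interpolated linearly between bracketing concentrations, or set to the highest concentration if not reached. TGI: total growth inhibition.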

Experiments:
Test in all cases: inhibition of tumour cell growth, NCI panel, 48 h
COLO 205 colon = system: COLO 205 colon
EKVX NSCLC = system: EKVX NSCLC
HCC-2998 colon = system: HCC-2998 colon
HCT-116 colon = system: HCT-116 colon
HOP-92 NSCLC = system: HOP-92 NSCLC
HT29 colon = system: HT29 colon
LOX IMVI melanoma = system: LOX IMVI melanoma
NCI-H460 lung = system: NCI-H460 lung
OVCAR-4 ovarian = system: OVCAR-4 ovarian
SF-295 CNS = system: SF-295 CNS
SF-539 CNS = system: SF-539 CNS
SK-MEL-28 melanoma = system: SK-MEL-28 melanoma
SK-OV-3 ovarian = system: SK-OV-3 ovarian
SNB-19 CNS = system: SNB-19 CNS
SW-620 colon = system: SW-620 colon
U251 CNS = system: U251 CNS
UACC-257 melanoma = system: UACC-257 melanoma
BT-549 breast = system: BT-549 breast
PC-3 prostate = system: PC-3 prostate
T-47D breast = system: T-47D breast

Measured: TGI

CC1(C)OC(C[C@]2(C#N)C[C@H](CCl)OC(C)(C)O2)C[C@@H](C[C@]2(C#N)C[C@H](CCl)OC(C)(C)O2)O1 (stereo partly drawn)
not listed: BT-549 breast | PC-3 prostate | T-47D breast
> 100 µM: all other assays above

COc1cc(=O)n2c3ccccc3n(C)c2c1C#N
not listed: LOX IMVI melanoma | SK-MEL-28 melanoma | T-47D breast
> 100 µM: all other assays above

CCCCCCCCOC(CO)CO
not listed: EKVX NSCLC | SF-539 CNS | BT-549 breast | PC-3 prostate | T-47D breast
> 100 µM: all other assays above

O=C1CCCC/C1=C1\C(=O)Nc2cc(F)ccc21
not listed: BT-549 breast | PC-3 prostate | T-47D breast
> 100 µM: all other assays above

C=CCC(CC=O)(C(=O)OCC)C(=O)OCC
not listed: HCC-2998 colon | BT-549 breast | T-47D breast
> 100 µM: all other assays above

Cc1ccc(/C(=C\C(=O)C(=O)NC23CC4CC(CC(C4)C2)C3)Sc2ccccc2)cc1
not listed: HCT-116 colon | HOP-92 NSCLC | SNB-19 CNS | BT-549 breast
> 10 µM: all other assays above

N#C/C(=C\c1ccc(O)c(O)c1)C(=O)NC1CCC(CC2CCC(NC(=O)/C(C#N)=C/c3ccc(O)c(O)c3)CC2)CC1 (stereo not drawn)
0.642 µM: HCT-116 colon
> 24.3 µM: UACC-257 melanoma
45.1 µM: EKVX NSCLC
> 29.9 µM: SNB-19 CNS
6.31 µM: HOP-92 NSCLC
4.5 µM: U251 CNS
> 41.4 µM: SK-OV-3 ovarian
1.22 µM: LOX IMVI melanoma
1.13 µM: NCI-H460 lung
25.7 µM: SW-620 colon
2.51 µM: COLO 205 colon
> 100 µM: SK-MEL-28 melanoma
3 µM: HT29 colon
3.55 µM: SF-295 CNS
2.67 µM: SF-539 CNS
40.6 µM: OVCAR-4 ovarian
7.43 µM: HCC-2998 colon

CCOC(=O)c1cc2c(nc1N)-c1ncccc1CC2
69.2 µM: COLO 205 colon
not listed: BT-549 breast | PC-3 prostate | T-47D breast
> 100 µM: all other assays above

Cc1cccc(/C=C2\CCCc3ccccc3C2=O)c1
59 µM: SK-MEL-28 melanoma
34.4 µM: SF-539 CNS
75.6 µM: BT-549 breast
37 µM: LOX IMVI melanoma
41.8 µM: SF-295 CNS
90.3 µM: SNB-19 CNS
35.8 µM: COLO 205 colon
47.7 µM: OVCAR-4 ovarian
31.2 µM: HCT-116 colon
46.6 µM: HT29 colon
48.5 µM: U251 CNS
58.5 µM: HOP-92 NSCLC
57.1 µM: EKVX NSCLC
30.7 µM: SW-620 colon
61.8 µM: UACC-257 melanoma
36.5 µM: NCI-H460 lung
> 100 µM: PC-3 prostate | SK-OV-3 ovarian

COc1ccc2c3c(n(Cc4ccccc4)c(=O)c2c1)-c1cc(OC)c(OC)cc1C3C (stereo not drawn)
52.8 µM: EKVX NSCLC
21.7 µM: NCI-H460 lung
42.6 µM: HOP-92 NSCLC
31.4 µM: SF-295 CNS
> 84.9 µM: SNB-19 CNS
> 84.8 µM: HT29 colon
35.8 µM: U251 CNS
24.4 µM: SF-539 CNS
> 80.4 µM: SK-OV-3 ovarian
47.7 µM: OVCAR-4 ovarian
not listed: BT-549 breast | PC-3 prostate | T-47D breast
> 100 µM: all other assays above

CCCCCC[C@H]1CC(=O)C2CCCC[C@@]23CC[C@H](CCl)N13 (stereo partly drawn) (tested in a mixture with another compound)
79.6 µM: HOP-92 NSCLC
90.6 µM: PC-3 prostate
not listed: COLO 205 colon | LOX IMVI melanoma | SW-620 colon | BT-549 breast | T-47D breast
> 100 µM: all other assays above
